According to patent US8796249B2, “TGR5 modulators and methods of use thereof” (Intercept Pharmaceuticals, Inc., priority 2008, dated 2014):
pEC50: −log10 of the molar value. Read-outs that look alike come from different tables or passages of the source. Marks after values point to notes of the source that are not given here. One block for each compound: values may come before it.

Experiments:
LXRα = biological target: T1, LXRα (Homo sapiens, UniProt Q13133); test: LXR coactivator recruitment (alphascreen); format: biochemical; conditions: ref standard T0901317
T1 sequence (Q13133 1-447): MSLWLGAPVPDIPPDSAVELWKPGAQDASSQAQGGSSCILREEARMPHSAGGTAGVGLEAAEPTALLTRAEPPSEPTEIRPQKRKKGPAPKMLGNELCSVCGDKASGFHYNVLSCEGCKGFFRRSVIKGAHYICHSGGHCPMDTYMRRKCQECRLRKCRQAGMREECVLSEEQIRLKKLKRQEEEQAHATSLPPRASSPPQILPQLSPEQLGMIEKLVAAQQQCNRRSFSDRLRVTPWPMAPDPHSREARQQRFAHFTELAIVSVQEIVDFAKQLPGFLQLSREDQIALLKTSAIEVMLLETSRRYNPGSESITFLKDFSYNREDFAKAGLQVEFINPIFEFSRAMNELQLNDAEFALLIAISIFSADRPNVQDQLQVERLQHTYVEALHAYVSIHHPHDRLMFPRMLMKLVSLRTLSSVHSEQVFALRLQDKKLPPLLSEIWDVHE
Experimental: (§1) The selectivity of compounds of the invention was evaluated using assay methods known in the art. Specifically, the following assay methods were used: • FXR and LXR: Coactivator Recruitment (alphascreen); • TGR5: cAMP level on human intestinal cell line (NCI-H716); • PXR: Ligands Competition assay (Binding Assay) • CAR: Coactivator Recruitment (Lanthascreen)

CAR = biological target: T2, CAR (Homo sapiens, UniProt Q14994); test: CAR coactivator recruitment (Lanthascreen); format: biochemical
T2 sequence (Q14994 1-352): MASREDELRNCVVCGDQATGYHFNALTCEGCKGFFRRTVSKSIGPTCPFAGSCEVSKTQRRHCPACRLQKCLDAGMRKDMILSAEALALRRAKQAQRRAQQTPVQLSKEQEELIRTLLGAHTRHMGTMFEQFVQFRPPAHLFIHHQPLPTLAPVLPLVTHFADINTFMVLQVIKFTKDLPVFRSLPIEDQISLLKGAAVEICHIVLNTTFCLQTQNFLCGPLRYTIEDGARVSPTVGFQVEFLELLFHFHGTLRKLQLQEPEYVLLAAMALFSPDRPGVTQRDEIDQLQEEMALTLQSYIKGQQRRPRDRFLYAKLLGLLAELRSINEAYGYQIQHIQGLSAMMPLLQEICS
Experimental: as §1

PPARδ = biological target: T3, PPARδ (Homo sapiens, UniProt Q03181); test: NR selectivity assay PPARδ; conditions: unnamed ref standard 0.004 μM
T3 sequence (Q03181 1-441): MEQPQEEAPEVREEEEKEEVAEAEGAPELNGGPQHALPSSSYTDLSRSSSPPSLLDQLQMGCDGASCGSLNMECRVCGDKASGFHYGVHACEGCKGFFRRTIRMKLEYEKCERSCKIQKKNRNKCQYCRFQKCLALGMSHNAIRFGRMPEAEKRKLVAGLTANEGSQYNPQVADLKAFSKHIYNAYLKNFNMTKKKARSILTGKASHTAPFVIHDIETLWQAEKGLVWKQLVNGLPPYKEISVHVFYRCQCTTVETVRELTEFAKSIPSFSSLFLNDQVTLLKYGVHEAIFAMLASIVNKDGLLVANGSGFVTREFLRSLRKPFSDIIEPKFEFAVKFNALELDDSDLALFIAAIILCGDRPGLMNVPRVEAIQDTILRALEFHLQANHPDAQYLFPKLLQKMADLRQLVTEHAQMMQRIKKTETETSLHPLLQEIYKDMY

VDR = biological target: T4, VDR (Homo sapiens, UniProt P11473); test: NR selectivity assay VDR; conditions: unnamed ref standard 0.005 μM
T4 sequence (P11473 1-427): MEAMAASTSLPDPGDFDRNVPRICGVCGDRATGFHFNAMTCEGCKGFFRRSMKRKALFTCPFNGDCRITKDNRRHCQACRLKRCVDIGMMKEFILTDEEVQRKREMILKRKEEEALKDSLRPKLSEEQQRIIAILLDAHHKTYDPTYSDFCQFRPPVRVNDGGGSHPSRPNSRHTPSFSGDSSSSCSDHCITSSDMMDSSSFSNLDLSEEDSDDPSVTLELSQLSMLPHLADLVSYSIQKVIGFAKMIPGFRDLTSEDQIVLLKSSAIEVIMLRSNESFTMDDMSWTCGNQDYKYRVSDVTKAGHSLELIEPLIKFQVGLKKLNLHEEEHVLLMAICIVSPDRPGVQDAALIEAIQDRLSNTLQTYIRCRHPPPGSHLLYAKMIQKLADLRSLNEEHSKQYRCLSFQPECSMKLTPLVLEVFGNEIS

[1] = Critical micellar concentration by surface tension (maximum bubble-pressure method); format: physicochemical; conditions: […] NaCl water solution
Experimental: The critical micellar concentration (CMC) was determined by surface tension (ST) measurements using a maximum bubble-pressure method which give surface tension values slightly affected by potential impurities like static methods are. The tensiometer was a […] Research Corp., Milwaukee, Wis.) equipped with two glass probes of 0.5 and 4.0 mm diameters connected to a source of nitrogen. The bubble frequency was 1 bubble/second in distilled water at 26° C. (P=2.7 atm) and the calibration was made with double-distilled water and methanol. The surface tension of BA sodium salts solutions in NaCl 0.15 M was measured at various concentrations inside the 0.13-50 mM range. The surface tension values were plotted against the logarithm of the bile salt concentration; the regression lines corresponding to the two parts of the curve (monomeric and micellar phases) were calculated using the method of least squares, and the intersection of the lines was taken as the CMC value. From the ST vs concentration curves the value of the surface tension at the CMC (equilibrium between monomers and multimers species) was also calculated giving information about the detergency power which is related to the size of the micelles with associate surface tension lowering capacity. The CMC was evaluated by surface tension measurements in non equilibrium conditions i.e. in conditions that impurities slightly affect the surface tension results (FIG. 1).

[2] = 1-Octanol/water partition coefficient (shake-flask); format: physicochemical; conditions: ionized species, pH 8
Experimental: Since the sulphate and sulphonated analogues are always ionised at all pH values the octanol/water partition coefficient was measured for all molecules in ionized form. 1-Octanol/water partition coefficient (log P) was evaluated using a conventional shake-flask procedure. […] The aqueous buffer was previously pre-saturated with 1-octanol, 5 ml of 1-octanol pre-saturated with water was then added and the samples were left to equilibrate for 2 weeks under continuous stirring at room temperature After centrifugation the two phases were carefully separated. BA concentration in the water phase was measured with HPLC-ESI ? MS/MS using C18 column (150 mm×2 mm i.d., 4 μm) and, as mobile phases, water containing 15 mM acetic acid pH 5 and acetonitrile. The flow rate was 150 μal/min and the column was maintained at 45° C. The mass spectrometry acquisition was performed in the multiple reaction monitoring mode using the ESI source in negative ionization.

bovine serum albumin [3] = biological target: T5, bovine serum albumin (Bos taurus, UniProt P02769); test: Albumin binding by equilibrium dialysis; format: in vitro ADME; conditions: 100 μM BA in 5% bovine serum albumin-saline, pH 7.2
T5 construct: dissolved at a concentration of 100 μM in 5% bovine serum albumin-saline solution (pH 7.2); from tissue; host or cells: bovine serum (only from the protein's name)
T5 sequence (P02769 25-607): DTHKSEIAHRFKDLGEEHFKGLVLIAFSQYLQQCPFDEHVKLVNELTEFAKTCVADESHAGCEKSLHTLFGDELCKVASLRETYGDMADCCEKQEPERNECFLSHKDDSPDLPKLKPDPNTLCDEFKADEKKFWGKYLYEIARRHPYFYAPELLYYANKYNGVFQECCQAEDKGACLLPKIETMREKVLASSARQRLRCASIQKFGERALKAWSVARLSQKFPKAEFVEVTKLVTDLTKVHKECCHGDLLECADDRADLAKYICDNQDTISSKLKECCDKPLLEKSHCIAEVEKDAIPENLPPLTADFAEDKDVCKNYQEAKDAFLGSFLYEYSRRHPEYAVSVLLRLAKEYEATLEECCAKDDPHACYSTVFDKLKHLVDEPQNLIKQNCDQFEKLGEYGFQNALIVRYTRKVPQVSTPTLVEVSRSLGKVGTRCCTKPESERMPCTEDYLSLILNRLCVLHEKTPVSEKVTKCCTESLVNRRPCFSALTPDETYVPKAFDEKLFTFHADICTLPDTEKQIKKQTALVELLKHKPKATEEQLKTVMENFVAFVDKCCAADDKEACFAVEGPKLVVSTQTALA
Experimental: The extent of albumin binding was evaluated by equilibrium dialysis at a fixed BA-albumin ratio. BA was dissolved at a concentration of 100 μM in 5% bovine serum albumin-saline solution (pH 7.2) and left to stand for 24 h at 25° C. Two milliliters of this solution was dialyzed in cellulose sacs having a molecular weight cut-off of 12-14,000 against 25 ml of saline solution. The system was equilibrated by mechanical gently shaking for 72 h at 25° C. BA concentrations of the dialyzed solution (corresponding to the free unbound fraction) and of the starting solution were determined with HPLC-ESI-MS/MS in the same conditions of the previous analysis. The percent of albumin binding was calculate from the initial BA concentration and from the unbound concentration in the dialyzed fraction. All these compounds never less present an albumin binding compatible with a relatively fast hepatic uptake, similarly to natural occurring BA. Accordingly different kinetics (slower) of the liver uptake is expected.

Intestinal Bacteria = test: In vitro metabolic stability in human stool culture; conditions: human stool cultures
Experimental: Homogenized fresh human stools (500 mg) were transferred into sterile vials to which 5 mL of sterilized chopped meat-glucose medium (Scott Lab., Fiskville, R.I.) was added. BA were then added at a final concentration of 0.05 mM. Vials were incubated at 37° C.; then, at 0, 1, 2, 4, 8 and 24 h after the addition of the BA, the reaction was stopped with 150 μL of 30% KOH. The samples were centrifuged at 3500 rpm for 10 min; from the supernatant the BA were isolated by C-18 solid-phase extraction and analyzed by TLC and HPLC-ES-MS/MS.
Thin-layer chromatography (TLC), utilizing silica gel 0.25 mm thickness plates (Merck, Darmstat, Germany), was employed as the first screening test. The solvent system used for the separation of conjugated BA was composed of propionic acid/isoamyl acetate/water/N-propanol (3:4:1:2, v/v/v/v; solvent I), and that of the unconjugated BA was acetic acid/carbon tetrachloride/isopropyl ether/isoamyl acetate/water/N-propanol/benzene (1:4:6:8:2:2, v/v/v/v/v/v; solvent II).

Water solubility = format: physicochemical; conditions: BA as protonated species, 0.1 M HCl, pH 1; hs = highly soluble, not evaluated
Experimental: Solid compound (BA) was suspended in 5 ml of 0.1 M HCl. […] The flow rate was 150 μl/min. The mass spectrometry acquisition was performed in the multiple reaction monitoring mode using the ESI source in negative ionization. Water solubility was expressed as μmol/liter.
The water solubility was measured for the insoluble protonated species of carboxylated bile acids at a pH 1.

HepG2 cell = HepG2 cell cytotoxicity, ATP decrease; format: cell-based
Experimental: Compounds of the invention were evaluated for cytotoxicity using standard methods known in the art. Specifically, cytotoxicity was evaluated using HEPG2 cells and monitoring ATP decrease and determining the EC50 value. […]

PXR = biological target: T6, PXR (Homo sapiens, UniProt O75469); test: PXR ligands competition assay (binding assay); conditions: ligands competition assay (binding assay); ref standard SR-12183
T6 sequence (O75469 1-434): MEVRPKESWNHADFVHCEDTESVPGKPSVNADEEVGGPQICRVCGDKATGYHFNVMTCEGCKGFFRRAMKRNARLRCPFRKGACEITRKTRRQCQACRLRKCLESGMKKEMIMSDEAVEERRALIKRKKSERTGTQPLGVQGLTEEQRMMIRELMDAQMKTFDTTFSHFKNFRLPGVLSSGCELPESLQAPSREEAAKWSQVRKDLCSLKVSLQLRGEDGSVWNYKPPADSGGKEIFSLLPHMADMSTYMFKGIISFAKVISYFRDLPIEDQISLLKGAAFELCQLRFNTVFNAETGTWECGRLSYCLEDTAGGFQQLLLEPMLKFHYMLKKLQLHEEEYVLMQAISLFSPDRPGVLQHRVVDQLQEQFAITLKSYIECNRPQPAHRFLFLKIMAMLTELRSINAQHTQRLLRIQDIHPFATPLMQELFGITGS
Experimental: as §1

[4] = BA as protonated species; values from literature; cited from earlier work
[5] = […] NaCl water solution; values from literature; cited from earlier work
[6] = Previous study of oleanolic acid (OA) in animals; format: in vivo
Experimental: Therefore, OA is administered at the dose of 50 mg/kg/d in this study.

[7] = ionized species; values from literature; cited from earlier work
bovine serum albumin [8] = biological target: T5, bovine serum albumin; conditions: values from literature; cited from earlier work
[9] = coactivator recruitment (Lanthascreen), ref standard CITCO

SMILES: C[C@H](CCC(=O)O)[C@H]1CC[C@H]2[C@@H]3[C@H](O)C[C@@H]4C[C@H](O)CC[C@]4(C)[C@H]3CC[C@]12C [CDCA, chenodeoxycholic acid]
- LXRα EC50 (LXRα): No
- pEC50 (CAR): < 3.60
- PPARδ EC50 (PPARδ): No
- VDR EC50 (VDR): No
- CMC […] Na+ [1]: 3.2 mM
- STCMC (surface tension at CMC) [1]: 45.5 Dyne/cm
- LogPA- (1-octanol-water partition coefficient) [2]: 2.2
- Albumin Binding (bovine serum albumin [3]): 93%
- half-life time (Intestinal Bacteria): almost one hour

SMILES: C[C@H](CCC(=O)O)[C@H]1CC[C@H]2[C@@H]3[C@@H](O)C[C@@H]4C[C@H](O)CC[C@]4(C)[C@H]3CC[C@]12C [UDCA, reference compound]
- LXRα EC50 (LXRα): No
- pEC50 (CAR; [9]): < 3.60
- PPARδ EC50 (PPARδ): No
- VDR EC50 (VDR): No
- Ws (water solubility) (Water solubility): 7.5 µM
- CMC […] Na+ [1]: 6.0 mM
- STCMC (surface tension at CMC) [1]: 50.5 Dyne/cm
- LogPA- (1-octanol-water partition coefficient) [2]: 2.2
- Albumin Binding (bovine serum albumin [3]): 94%
- pEC50 (HepG2 cell): < 3.00

SMILES: C[C@H](CCC(=O)O)[C@H]1CC[C@H]2[C@@H]3CC[C@@H]4C[C@H](O)CC[C@]4(C)[C@H]3CC[C@]12C [LCA, lithocholic acid]
- LXRα EC50 (LXRα): No
- CAR EC50 (CAR; [9]): No
- PPARδ EC50 (PPARδ): No

SMILES: CN[C@@H]1C[C@H]2O[C@@](C)([C@@H]1OC)n1c3ccccc3c3c4c(c5c6ccccc6n2c5c31)C(=O)NC4 [Staurosporine, reference compound]
- pEC50 (HepG2 cell; human): 4.82

More lines, main results first:

- LXRα EC50 (LXRα): No
- PXR EC50 (PXR): No
SMILES: C[C@H](CCC(=O)O)[C@H]1CC[C@H]2[C@@H]3[C@H](O)C[C@@H]4C[C@H](O)CC[C@]4(C)[C@H]3C[C@H](O)[C@]12C [CA]
- pEC50 (HepG2 cell; read-out: HepG2 cell Cytotoxicity ATP decrease EC50): < 3.00
- Ws (water solubility) [4]: 273* μM
- CMC […] Na+ [5]: 11* mM

- food aversion [6]: did not cause food aversion
SMILES: CC1(C)CC[C@]2(C(=O)O)CC[C@]3(C)C(=CC[C@@H]4[C@@]5(C)CC[C@H](O)C(C)(C)[C@@H]5CC[C@]43C)[C@@H]2C1 [OA, oleanolic acid]
- toxicity ([6]; dose of 100 mg/kg/day): some signs of toxicity
- tolerability ([6]; lower dose than 100 mg/kg/day): well tolerated

- Ws (water solubility) (Water solubility): hs
SMILES: C[C@H](CCC(=O)NCCS(=O)(=O)O)[C@H]1CC[C@H]2[C@@H]3[C@@H](O)C[C@@H]4C[C@H](O)CC[C@]4(C)[C@H]3CC[C@]12C [TUDCA]
- CMC […] Na+ [5]: 2.2* mM
- LogPA- (1-octanol-water partition coefficient) [7]: 1.1*
- Albumin Binding (bovine serum albumin [8]): 67* %

- Ws (water solubility) (Water solubility): hs
SMILES: C[C@H](CCC(=O)NCCS(=O)(=O)O)[C@H]1CC[C@H]2[C@@H]3[C@H](O)C[C@@H]4C[C@H](O)CC[C@]4(C)[C@H]3CC[C@]12C [TCDCA]
- CMC […] Na+ [5]: 3.0* mM
- LogPA- (1-octanol-water partition coefficient) [7]: 0.9*
- Albumin Binding (bovine serum albumin [8]): 70* %
